From paper PMC11684029, “Discovery of VU6024578/BI02982816: An mGlu1 Positive Allosteric Modulator with Efficacy in Preclinical Antipsychotic and Cognition Models” (Journal of Medicinal Chemistry, 2024)

Experiments:
mGlu4 = test system: mGlu4; set-up: method as in PMID 30116027, PMID 34731619, PMID 35643819, PMID 25137254, PMID 11606768; conditions: Figure 1; cited from earlier work
hmGlu1 = test system: hmGlu1; set-up: method as in PMID 30116027, PMID 34731619, PMID 35643819, PMID 25137254, PMID 11606768; conditions: Figure 1; read-out: hmGlu1 PAM EC50; cited from earlier work
[1] = plasma protein binding, equilibrium dialysis; format: in vitro ADME, rat; conditions: fraction unbound
Method: (§1) The protein binding of each compound was determined in plasma via equilibrium dialysis employing RED Plates (ThermoFisher Scientific, Rochester, NY). Plasma was added to the 96 well plate containing test compound and mixed thoroughly for a final concentration of 5 μM. Subsequently, an aliquot of the plasma-compound mixture was transferred to the cis chamber (red) of the RED plate, with an phosphate buffer (25 mM, pH 7.4) in the trans chamber. The RED plate was sealed and incubated for 4 h at 37 °C with shaking. At completion, aliquots from each chamber were diluted 1:1 with either plasma (cis) or buffer (trans) and transferred to a new 96 well plate, at which time ice-cold acetonitrile containing internal standard (50 ng/mL carbamazepine) (2 volumes) was added to extract the matrices. The plate was centrifuged (3000 rcf, 10 min) and supernatants transferred and diluted 1:1 (supernatant: water) into a new 96 well plate, which was then sealed in preparation for LC/MS/MS analysis. Each compound was assayed in triplicate within the same 96-well plate. Fraction unbound was determined using the following equation [drawing 1]

human mGlu1 = target: T1, human mGlu1 (Homo sapiens, UniProt Q13255); assay: mGlu1 calcium mobilization (triple-add) PAM assay; format: cell-based; conditions: PAM, calcium flux, EC20 glutamate
T1 construct: expressed in transfected cells; pcDNA5/TO)
Method: Tetracycline-inducible human mGlu1 WT-T-REx-293 cells (Wu et al, Science 2014) were cultured at 37 °C in Dulbecco’s Modified Eagle Medium (DMEM) growth medium containing 10% Tet-tested FBS, 2 mM L-glutamine, 20 mM HEPES, 0.1 mM nonessential amino acids, 1 mM sodium pyruvate, antibiotic/antimycotic, 100 μg/mL hygromycin and 5 μg/mL blasticidin in the presence of 5% CO2. […] The mutant stable cell lines were generated in the same manner as the WT as previously described and cultured in the growth medium described above.
To determine the potency of mGlu1 PAMs in calcium assays, Ca flux was measured as previously described in ACS Chem. Bio. 2014, 9, 2334–2346. Briefly, the day before the assay, human mGlu1 WT-T-REx-293 cells were plated in black-walled, clear-bottomed, poly-D-lysine coated 96-well plates at 80,000 cells/100 μL assay medium (DMEM supplemented with 10% dialyzed FBS, 20 mM HEPES, and 1 mM sodium pyruvate) containing 50 ng/mL of tetracycline to induce mGlu1 expression. The next day, media was removed and the cells were incubated with 50 μL of 1.15 μM Fluo-4 AM dye solution prepared in assay buffer (buffer (Hank’s balanced salt solution, 20 mM HEPES, and 2.5 mM probenecid) for 45 min at 37 °C, the dye was removed and replaced with 45 μL of assay buffer. Then, calcium flux was measured using Flexstation II (Molecular Devices, Sunnyvale, CA). Compounds serially diluted at half log concentrations in DMSO were further diluted in assay buffer. The compounds or DMSO vehicle were added to cells and incubated for 2.5 min and an EC20 concentration of glutamate was added and incubated for 1 min. An ECmax concentration of glutamate was also added to cells that were incubated with DMSO vehicle to accurately calculate the EC20 calcium response. Data were normalized by subtracting the basal florescent peak before EC20 agonist addition from the maximal peak elicited by EC20 agonist and PAMs. Using GraphPad Prism 5.0, the concentration response curves were generated and the potencies of the mGlu1 PAMs were determined.

[2] = rat IV plasma:brain level (PBL) PK; format: in vivo
[3] = intrinsic clearance, predicted hepatic clearance; format: in vitro ADME, human; conditions: in vitro predicted hepatic clearance
Method: (§2) Human or rat hepatic microsomes (0.5 mg/mL) and 1 μM test compound were incubated in 100 mM potassium phosphate pH 7.4 buffer with 3 mM MgCl2 at 37 °C with constant shaking. After a 5 min preincubation, the reaction was initiated by addition of NADPH (1 mM). At selected time intervals (0, 3, 7, 15, 25, and 45 min), aliquots were taken and subsequently placed into a 96-well plate containing cold acetonitrile with internal standard (50 ng/mL carbamazepine). Plates were then centrifuged at 3000 rcf (4 °C) for 10 min, and the supernatant was transferred to a separate 96-well plate and diluted 1:1 with water for LC/MS/MS analysis. The in vitro half-life (T1/2, min, eq 1), intrinsic clearance (CLint, mL/min/kg, eq 2) and subsequent predicted hepatic clearance (CLhep, mL/min/kg, eq 3) was determined employing the following equations: [drawing 2] 1 where k represents the slope from linear regression analysis of the natural log percent remaining of test compound as a function of incubation time [drawing 3] 2
(§3) ^ascale-up factors: of 20 (human) or 45 (rat) [drawing 4] 3 where Qh (hepatic blood flow, mL/min/kg) is 21 (human) or 70 (rat).

brain homogenate binding = format: in vitro ADME, rat; conditions: fraction unbound
rat mGlu1 = rat mGlu1 (Rattus norvegicus, UniProt P23385); assay: mGlu1 calcium mobilization PAM assay; format: cell-based; conditions: PAM, calcium flux
[4] = intrinsic clearance, predicted hepatic clearance; format: in vitro ADME, rat; conditions: in vitro predicted hepatic clearance
Method: as §2, §3

[5] = plasma protein binding, equilibrium dialysis; format: in vitro ADME, human; conditions: fraction unbound
Method: as §1

Sprague–Dawley rats = assay: catalepsy (latency to withdraw); format: in vivo; conditions: rat, positive control, 1.5 mg/kg i.p.
Method: In order to enable our target validation work, we first profiled PAM 19d in a rat locomotor battery to ensure that pharmacodynamic efficacy was not mistaken for gross effects on locomotion.[20] […] PK was performed in parallel to establish a PK/PD relationship.[24]
Control rats were injected with 1.5 mg/kg of haloperidol i.p. (dissolved in 8% lactic acid and taken to volume of 50 mL with sterile water) and were returned to their home cage for 90 min. Cataleptic behavior is determined by placing the forelimbs on a bar raised 6 cm above the table and recording the amount of time it takes for the rat to withdraw the forelimbs with a cutoff of 60 s. Data are expressed as mean latency to withdraw + SEM or percent inhibition of catalepsy + SEM.

Chain of rat mGlu1 (P23385 19-1199): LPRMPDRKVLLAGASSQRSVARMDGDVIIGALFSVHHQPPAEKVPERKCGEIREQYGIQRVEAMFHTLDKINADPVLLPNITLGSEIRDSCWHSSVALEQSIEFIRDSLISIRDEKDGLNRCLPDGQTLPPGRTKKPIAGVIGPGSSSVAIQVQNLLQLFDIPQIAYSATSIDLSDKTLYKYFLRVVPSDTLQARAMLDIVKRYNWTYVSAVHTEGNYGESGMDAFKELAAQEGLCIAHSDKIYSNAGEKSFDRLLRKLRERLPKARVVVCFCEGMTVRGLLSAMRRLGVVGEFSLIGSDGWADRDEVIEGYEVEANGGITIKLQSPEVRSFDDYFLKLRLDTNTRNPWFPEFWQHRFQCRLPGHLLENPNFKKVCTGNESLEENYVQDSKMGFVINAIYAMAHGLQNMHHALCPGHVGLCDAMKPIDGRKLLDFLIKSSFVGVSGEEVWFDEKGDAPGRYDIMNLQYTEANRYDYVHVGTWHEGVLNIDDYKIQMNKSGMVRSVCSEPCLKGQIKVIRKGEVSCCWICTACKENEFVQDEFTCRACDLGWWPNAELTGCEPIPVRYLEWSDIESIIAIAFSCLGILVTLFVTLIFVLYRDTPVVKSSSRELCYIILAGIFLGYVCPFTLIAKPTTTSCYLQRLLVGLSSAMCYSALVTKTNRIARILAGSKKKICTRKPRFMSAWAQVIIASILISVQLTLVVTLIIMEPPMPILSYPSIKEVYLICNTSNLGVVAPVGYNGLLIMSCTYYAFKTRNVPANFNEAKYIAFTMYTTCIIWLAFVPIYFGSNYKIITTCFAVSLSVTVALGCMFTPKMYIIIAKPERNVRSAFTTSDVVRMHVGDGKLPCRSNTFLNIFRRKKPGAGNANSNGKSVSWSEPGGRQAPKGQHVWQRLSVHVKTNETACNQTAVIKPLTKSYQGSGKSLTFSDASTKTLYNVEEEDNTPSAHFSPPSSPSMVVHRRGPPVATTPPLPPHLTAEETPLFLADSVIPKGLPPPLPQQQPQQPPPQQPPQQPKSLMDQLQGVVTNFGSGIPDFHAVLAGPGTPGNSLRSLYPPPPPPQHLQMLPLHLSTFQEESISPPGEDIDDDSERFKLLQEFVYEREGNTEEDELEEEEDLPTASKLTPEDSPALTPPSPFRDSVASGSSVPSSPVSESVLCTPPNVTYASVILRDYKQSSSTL
T1 sequence (Q13255 19-1194): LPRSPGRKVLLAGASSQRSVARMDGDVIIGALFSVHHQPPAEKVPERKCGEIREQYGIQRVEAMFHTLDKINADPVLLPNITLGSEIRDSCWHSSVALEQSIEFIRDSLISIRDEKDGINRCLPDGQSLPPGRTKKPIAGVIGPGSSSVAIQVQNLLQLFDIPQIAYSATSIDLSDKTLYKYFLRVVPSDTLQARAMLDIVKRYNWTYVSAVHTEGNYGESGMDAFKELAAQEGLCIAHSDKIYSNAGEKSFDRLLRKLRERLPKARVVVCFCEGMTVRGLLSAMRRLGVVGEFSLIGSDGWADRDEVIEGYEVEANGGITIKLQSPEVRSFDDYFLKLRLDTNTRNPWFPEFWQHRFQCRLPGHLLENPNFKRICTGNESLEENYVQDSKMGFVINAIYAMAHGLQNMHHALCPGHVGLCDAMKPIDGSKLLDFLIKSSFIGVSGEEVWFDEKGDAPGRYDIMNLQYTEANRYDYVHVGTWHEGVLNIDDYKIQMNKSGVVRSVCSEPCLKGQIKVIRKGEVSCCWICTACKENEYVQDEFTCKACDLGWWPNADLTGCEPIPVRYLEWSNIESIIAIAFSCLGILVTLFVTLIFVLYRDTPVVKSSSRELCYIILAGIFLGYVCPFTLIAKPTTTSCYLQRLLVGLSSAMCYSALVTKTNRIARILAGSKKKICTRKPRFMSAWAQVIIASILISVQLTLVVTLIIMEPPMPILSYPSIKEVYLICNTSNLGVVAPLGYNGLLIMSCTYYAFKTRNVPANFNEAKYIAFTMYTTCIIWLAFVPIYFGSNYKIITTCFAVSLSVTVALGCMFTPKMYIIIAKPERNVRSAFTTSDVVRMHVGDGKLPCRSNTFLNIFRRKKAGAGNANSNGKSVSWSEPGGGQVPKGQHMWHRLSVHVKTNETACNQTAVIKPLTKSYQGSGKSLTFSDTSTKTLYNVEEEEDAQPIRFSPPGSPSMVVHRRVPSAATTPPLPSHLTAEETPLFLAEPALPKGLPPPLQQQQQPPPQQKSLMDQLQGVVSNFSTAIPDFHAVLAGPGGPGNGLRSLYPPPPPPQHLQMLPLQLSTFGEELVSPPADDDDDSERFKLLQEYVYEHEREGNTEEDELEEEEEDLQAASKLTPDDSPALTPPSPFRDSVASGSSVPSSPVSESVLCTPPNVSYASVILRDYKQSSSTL

In the case of `O=C(Nc1ccc(N2C(=O)c3cccc(Cl)c3C2=O)c(Cl)c1)c1ncccc1Cl` [Compound 2], the “selectivity vs. mGlu4” value (mGlu4) is given as ~ 30 fold and the EC50 (hmGlu1) is given as 390 nM.
In the case of `Cc1ccoc1C(=O)Nc1ccc(N2C(=O)c3cccc(F)c3C2=O)c(Cl)c1` [Compound 3], the “selectivity vs. mGlu4” value (mGlu4) is listed as ~ 35 fold and the EC50 (hmGlu1) is listed as 32 nM.
In the case of `Cc1ccoc1C(=O)Nc1ccc(N2Cc3c(Cl)cccc3C2=O)c(Cl)c1` [Compound 5], the “selectivity vs. mGlu4” value (mGlu4) is given as ~ 50 fold and the EC50 (hmGlu1) is given as 211 nM.
For `O=C(NCc1cnn2ccccc12)c1cc(-c2ccco2)ccc1Cl` [Compound 9k, 2-Chloro-5-(furan-2-yl)-N-(pyrazolo[1,5-a]pyridin-3-ylmethyl)benzamide], the rat fuplasma [1] was 0.022, the EC50 (human mGlu1) was 51 nM and the “human mGlu1 Glumax” value (human mGlu1) was 53%. The Kp at 15 min ([2]; Sprague-Dawley, 0.25 mg/kg/compound, rat IV PBL, brain:plasma) was 0.27, the clearance ([2]; Sprague-Dawley, plasma, intravenous, rat PK PBL experiment, read-out: CLp) was 67.2 mL/min/kg and the MRT ([2]; rat PK PBL experiment) was 21.3 min. The t1/2 ([2]; rat PK PBL experiment) was 23.8 min, the “CLhep, human” value [3] was 19.8 mL/min/kg and the rat fubrain (brain homogenate binding) was 0.021. The EC50 (rat mGlu1) was 109 nM, the “rat mGlu1 Glumax” value (rat mGlu1) was 92% and the “CLhep, rat” value [4] was 63.7 mL/min/kg. For the same compound, the human fuplasma [5] was 0.036.
For `O=C(NCc1cc(-c2ccccc2)no1)c1cc(-c2ccco2)ccc1Cl` [Compound 15a, 2-Chloro-5-(furan-2-yl)-N-((3-phenylisoxazol-5-yl)methyl)benzamide], the rat fuplasma [1] was 0.009, the EC50 (human mGlu1) was 211 nM and the “human mGlu1 Glumax” value (human mGlu1) was 96%. For the same compound, the “CLhep, human” value [3] was 19.4 mL/min/kg, the “CLhep, rat” value [4] was 60.9 mL/min/kg and the human fuplasma [5] was 0.001.
With `O=C(NCc1noc(-c2ccccc2)n1)c1cc(-c2ccco2)ccc1Cl` [Compound 15b, 2-Chloro-5-(furan-2-yl)-N-((5-phenyl-1,2,4-oxadiazol-3-yl)methyl)benzamide] the rat fuplasma [1] was 0.004, the EC50 (human mGlu1) was 39 nM and the “human mGlu1 Glumax” value (human mGlu1) was 56%. The “CLhep, human” value [3] was 19.9 mL/min/kg, the rat fubrain (brain homogenate binding) was 0.005 and the EC50 (rat mGlu1) was 62 nM. The “rat mGlu1 Glumax” value (rat mGlu1) was 106%, the “CLhep, rat” value [4] was 61.8 mL/min/kg and the human fuplasma [5] was 0.001.
With `O=C(NCc1cnc(-c2cccs2)s1)c1cc(-c2ccco2)ccc1Cl` [Compound 15e, 2-Chloro-5-(furan-2-yl)-N-((2-(thiophen-2-yl)thiazol-5-yl)methyl)benzamide] the rat fuplasma [1] was 0.003, the EC50 (human mGlu1) was 96 nM and the “human mGlu1 Glumax” value (human mGlu1) was 71%. The “CLhep, human” value [3] was 19.7 mL/min/kg, the rat fubrain (brain homogenate binding) was 0.002 and the EC50 (rat mGlu1) was 301 nM. The “rat mGlu1 Glumax” value (rat mGlu1) was 51%, the “CLhep, rat” value [4] was 57.4 mL/min/kg and the human fuplasma [5] was 0.001.
For `Cn1nc(C(F)(F)F)cc1CNC(=O)c1cc(-c2ccco2)ccc1Cl` [Compound 15f, 2-Chloro-5-(furan-2-yl)-N-((1-methyl-3-(trifluoromethyl)-1H-pyrazol-5-yl)methyl)benzamide], the rat fuplasma [1] was 0.025, the EC50 (human mGlu1) was 188 nM and the “human mGlu1 Glumax” value (human mGlu1) was 60%. For the same compound, the “CLhep, human” value [3] was 20.3 mL/min/kg, the rat fubrain (brain homogenate binding) was 0.019 and the EC50 (rat mGlu1) was 280 nM. The “rat mGlu1 Glumax” value (rat mGlu1) was 74%, the “CLhep, rat” value [4] was 57.1 mL/min/kg and the human fuplasma [5] was 0.036.
For `Cn1nc(-c2cccs2)cc1CNC(=O)c1cc(-c2ccco2)ccc1Cl` [Compound 19a, 2-Chloro-5-(furan-2-yl)-N-((1-methyl-3-(thiophen-2-yl)-1H-pyrazol-5-yl)methyl)benzamide], the rat fuplasma [1] was 0.002, the EC50 (human mGlu1) was 56 nM and the “human mGlu1 Glumax” value (human mGlu1) was 69%. For the same compound, the “CLhep, human” value [3] was 19.0 mL/min/kg, the rat fubrain (brain homogenate binding) was 0.003 and the EC50 (rat mGlu1) was 20 nM. The “rat mGlu1 Glumax” value (rat mGlu1) was 109%, the “CLhep, rat” value [4] was 54.8 mL/min/kg and the human fuplasma [5] was 0.002.
For `Cn1nc(-c2ccccc2F)cc1CNC(=O)c1cc(-c2ccco2)ccc1Cl` [Compound 19b, 2-Chloro-N-((3-(2-fluorophenyl)-1-methyl-1H-pyrazol-5-yl)methyl)-5-(furan-2-yl)benzamide], the rat fuplasma [1] was 0.002, the EC50 (human mGlu1) was 195 nM and the “human mGlu1 Glumax” value (human mGlu1) was 85%. The “CLhep, human” value [3] was 18.6 mL/min/kg, the rat fubrain (brain homogenate binding) was 0.003 and the EC50 (rat mGlu1) was 133 nM. For the same compound, the “rat mGlu1 Glumax” value (rat mGlu1) was 116%, the “CLhep, rat” value [4] was 56.4 mL/min/kg and the human fuplasma [5] was 0.002.
With `Cn1nc(-c2cccnc2)cc1CNC(=O)c1cc(-c2ccco2)ccc1Cl` [Compound 19c, 2-Chloro-5-(furan-2-yl)-N-((1-methyl-3-(pyridin-3-yl)-1H-pyrazol-5-yl)methyl)benzamide] the rat fuplasma [1] was 0.015, the EC50 (human mGlu1) was 74 nM and the “human mGlu1 Glumax” value (human mGlu1) was 60%. For the same compound, the “CLhep, human” value [3] was 18.8 mL/min/kg, the rat fubrain (brain homogenate binding) was 0.021 and the EC50 (rat mGlu1) was 124 nM. For the same compound, the “rat mGlu1 Glumax” value (rat mGlu1) was 116%, the “CLhep, rat” value [4] was 51.7 mL/min/kg and the human fuplasma [5] was 0.023.
For `O=C(CCCN1CCC(O)(c2ccc(Cl)cc2)CC1)c1ccc(F)cc1` [haloperidol, reference compound], the catalepsy (Sprague–Dawley rats) was “induced profound catalepsy”.
